This is an account of results in US12522602B2, “Derivatives having 2,3-dihydro-1H-indene or 2,3-dihydrobenzofuran moiety or pharmaceutically acceptable salt thereof and pharmaceutical compositions comprising the same” (YUHAN CORPORATION, priority 2019, dated 2026).

In the assay the test system is GM1 production in Jurkat cells. Description: cells. It is filed as cell-based. To be noted: Homo sapiens, Jurkat, 72 h.
On to `CCCOc1cccc(-c2cc3c(cc2F)C(NC(=O)O[C@@H]2CN4CCC2CC4)C(C)(C)C3)c1` (stereo partly drawn) [Example 377, (S)-quinuclidin-3-yl (6-fluoro-2,2-dimethyl-5-(3-propoxyphenyl)-2,3-dihydro-1H-inden-1-yl)carbamate], for which it took 35.5 nM to reach half-maximal inhibition (IC50).

Consider `CC(C)Oc1cccc(-c2cc3c(cc2F)C(NC(=O)O[C@@H]2CN4CCC2CC4)C(C)(C)C3)c1` (stereo partly drawn) [Example 378, (S)-quinuclidin-3-yl (6-fluoro-5-(3-isopropoxyphenyl)-2,2-dimethyl-2,3-dihydro-1H-inden-1-yl)carbamate], for which the IC50 (commonly the midpoint of a concentration-inhibition curve) was 87.5 nM.

Take `CCCCOc1cccc(-c2cc3c(cc2F)C(NC(=O)O[C@@H]2CN4CCC2CC4)C(C)(C)C3)c1` (stereo partly drawn) [Example 379, (S)-quinuclidin-3-yl (5-(3-butoxyphenyl)-6-fluoro-2,2-dimethyl-2,3-dihydro-1H-inden-1-yl)carbamate]: the IC50 was found to be 15.8 nM. Against the preceding molecule, the IC50 is about 5.5-fold lower.

Take `CC(C)COc1cccc(-c2cc3c(cc2F)C(NC(=O)O[C@@H]2CN4CCC2CC4)C(C)(C)C3)c1` (stereo partly drawn) [Example 380, (S)-quinuclidin-3-yl (6-fluoro-5-(3-isobutoxyphenyl)-2,2-dimethyl-2,3-dihydro-1H-inden-1-yl)carbamate]: the IC50 was 36.5 nM.

`COc1ccc(-c2cc3c(cc2F)C(NC(=O)O[C@@H]2CN4CCC2CC4)C(C)(C)C3)c(OC)c1` (stereo partly drawn) [Example 381, (S)-quinuclidin-3-yl (5-(2,4-dimethoxyphenyl)-6-fluoro-2,2-dimethyl-2,3-dihydro-1H-inden-1-yl)carbamate] gave a half-maximal inhibitory concentration (IC50) of 59.9 nM.

Molecule `COc1ccc(OC)c(-c2cc3c(cc2F)C(NC(=O)O[C@@H]2CN4CCC2CC4)C(C)(C)C3)c1` (stereo partly drawn) [Example 382, (S)-quinuclidin-3-yl (5-(2,5-dimethoxyphenyl)-6-fluoro-2,2-dimethyl-2,3-dihydro-1H-inden-1-yl)carbamate] had a 50% inhibitory concentration (IC50) of 31.3 nM.

On to `COc1cccc(OC)c1-c1cc2c(cc1F)C(NC(=O)O[C@@H]1CN3CCC1CC3)C(C)(C)C2` (stereo partly drawn) [Example 383, (S)-quinuclidin-3-yl (5-(2,6-dimethoxyphenyl)-6-fluoro-2,2-dimethyl-2,3-dihydro-1H-inden-1-yl)carbamate], for which the IC50 came to 123 nM.

Turning to `COc1cc(OC)cc(-c2cc3c(cc2F)C(NC(=O)O[C@@H]2CN4CCC2CC4)C(C)(C)C3)c1` (stereo partly drawn) [Example 384, (S)-quinuclidin-3-yl (5-(3,5-dimethoxyphenyl)-6-fluoro-2,2-dimethyl-2,3-dihydro-1H-inden-1-yl)carbamate], half-maximal inhibition (IC50) was put at 83.2 nM.

`COc1ccc(-c2cc3c(cc2F)C(NC(=O)O[C@@H]2CN4CCC2CC4)C(C)(C)C3)cc1OC` (stereo partly drawn) [Example 385, (S)-quinuclidin-3-yl (5-(3,4-dimethoxyphenyl)-6-fluoro-2,2-dimethyl-2,3-dihydro-1H-inden-1-yl)carbamate] had an IC50 of 332 nM.

Take `COc1ccc(-c2cc3c(cc2F)C(NC(=O)O[C@@H]2CN4CCC2CC4)C(C)(C)C3)c(Cl)c1` (stereo partly drawn) [Example 386, (S)-quinuclidin-3-yl (5-(2-chloro-4-methoxyphenyl)-6-fluoro-2,2-dimethyl-2,3-dihydro-1H-inden-1-yl)carbamate]: it took 29.5 nM to reach half-maximal inhibition (IC50).

`CCOc1ccc(-c2cc3c(cc2F)C(NC(=O)O[C@@H]2CN4CCC2CC4)C(C)(C)C3)cc1F` (stereo partly drawn) [Example 387, (S)-quinuclidin-3-yl (5-(4-ethoxy-3-fluorophenyl)-6-fluoro-2,2-dimethyl-2,3-dihydro-1H-inden-1-yl)carbamate] showed an IC50 of 48.2 nM.

On to `Cc1cc(-c2cc3c(cc2F)C(NC(=O)O[C@@H]2CN4CCC2CC4)C(C)(C)C3)cc(C)c1OC(C)C` (stereo partly drawn) [Example 388, (S)-quinuclidin-3-yl (6-fluoro-5-(4-isopropoxy-3,5-dimethylphenyl)-2,2-dimethyl-2,3-dihydro-1H-inden-1-yl)carbamate], for which the IC50 worked out at 93.1 nM.

`O=C(NC1c2ccc(-c3ccc(F)cc3)cc2CC12CC2)O[C@@H]1CN2CCC1CC2` (stereo partly drawn) [Example 389, (S)-quinuclidin-3-yl (5′-(4-fluorophenyl)-1′,3′-dihydrospiro[cyclopropane-1,2′-inden]-1′-yl)carbamate]: the IC50 worked out at 76.5 nM.

`O=C(NC1c2ccc(-c3ccc(Cl)cc3)cc2CC12CC2)O[C@@H]1CN2CCC1CC2` (stereo partly drawn) [Example 390, (S)-quinuclidin-3-yl (5′-(4-chlorophenyl)-1′,3′-dihydrospiro[cyclopropane-1,2′-inden]-1′-yl)carbamate] came in with an IC50 of 44.1 nM.

`O=C(NC1c2ccc(-c3ccc(C(F)(F)F)cc3)cc2CC12CC2)O[C@@H]1CN2CCC1CC2` (stereo partly drawn) [Example 391, (S)-quinuclidin-3-yl (5′-(4-(trifluoromethyl)phenyl)-1′,3′-dihydrospiro[cyclopropane-1,2′-inden]-1′-yl)carbamate]: the IC50 is 55.3 nM.

`O=C(NC1c2ccc(-c3ccc(OC(F)(F)F)cc3)cc2CC12CC2)O[C@@H]1CN2CCC1CC2` (stereo partly drawn) [Example 392, (S)-quinuclidin-3-yl (5′-(4-(trifluoromethoxy)phenyl)-1′,3′-dihydrospiro[cyclopropane-1,2′-inden]-1′-yl)carbamate]: the IC50 came to 41.9 nM.

`O=C(NC1c2ccc(-c3cccc(Cl)c3)cc2CC12CC2)O[C@@H]1CN2CCC1CC2` (stereo partly drawn) [Example 393, (S)-quinuclidin-3-yl (5′-(3-chlorophenyl)-1′,3′-dihydrospiro[cyclopropane-1,2′-inden]-1′-yl)carbamate] registered an IC50 of 54.9 nM.

For `O=C(NC1c2ccc(-c3cccc(C(F)(F)F)c3)cc2CC12CC2)O[C@@H]1CN2CCC1CC2` (stereo partly drawn) [Example 394, (S)-quinuclidin-3-yl (5′-(3-(trifluoromethyl)phenyl)-1′,3′-dihydrospiro[cyclopropane-1,2′-inden]-1′-yl)carbamate], the concentration for half-maximal inhibition (IC50) came to 48.8 nM.

`COCCOc1ccc(-c2ccc3c(c2)CC2(CC2)C3NC(=O)O[C@@H]2CN3CCC2CC3)cc1` (stereo partly drawn) [Example 395, (S)-quinuclidin-3-yl (5′-(4-(2-methoxyethoxy)phenyl)-1′,3′-dihydrospiro[cyclopropane-1,2′-inden]-1′-yl)carbamate]: the IC50 amounted to 30.9 nM.

Take `COCCOc1cccc(-c2ccc3c(c2)CC2(CC2)C3NC(=O)O[C@@H]2CN3CCC2CC3)c1` (stereo partly drawn) [Example 396, (S)-quinuclidin-3-yl (5′-(3-(2-methoxyethoxy)phenyl)-1′,3′-dihydrospiro[cyclopropane-1,2′-inden]-1′-yl)carbamate]: the IC50 was found to be 39.6 nM.

Molecule `COCOc1ccc(-c2ccc3c(c2)CC2(CC2)C3NC(=O)O[C@@H]2CN3CCC2CC3)cc1` (stereo partly drawn) [Example 397, (S)-quinuclidin-3-yl (5′-(4-(methoxymethoxy)phenyl)-1′,3′-dihydrospiro[cyclopropane-1,2′-inden]-1′-yl)carbamate] returned an IC50 of 17.4 nM.

For `COCOc1cccc(-c2ccc3c(c2)CC2(CC2)C3NC(=O)O[C@@H]2CN3CCC2CC3)c1` (stereo partly drawn) [Example 398, (S)-quinuclidin-3-yl (5′-(3-(methoxymethoxy)phenyl)-1′,3′-dihydrospiro[cyclopropane-1,2′-inden]-1′-yl)carbamate], the half-inhibitory concentration (IC50) turned out to be 36.6 nM.

Molecule `CC1(C)CC(NC(=O)O[C@@H]2CN3CCC2CC3)c2ccc(-c3cccc(Cl)c3)cc21` (stereo partly drawn) [Example 399, (S)-quinuclidin-3-yl (5-(3-chlorophenyl)-3,3-dimethyl-2,3-dihydro-1H-inden-1-yl)carbamate] registered an IC50 of 43.6 nM.

Regarding `CC1(C)CC(NC(=O)O[C@@H]2CN3CCC2CC3)c2ccc(-c3ccccc3Cl)cc21` (stereo partly drawn) [Example 400, (S)-quinuclidin-3-yl (5-(2-chlorophenyl)-3,3-dimethyl-2,3-dihydro-1H-inden-1-yl)carbamate], the IC50 worked out at 108 nM. Compared with the last molecule, the IC50 is about 2.5-fold higher.

For `CC1(C)CC(NC(=O)O[C@@H]2CN3CCC2CC3)c2ccc(-c3cccc(C(F)(F)F)c3)cc21` (stereo partly drawn) [Example 401, (S)-quinuclidin-3-yl (3,3-dimethyl-5-(3-(trifluoromethyl)phenyl)-2,3-dihydro-1H-inden-1-yl)carbamate], the IC50 was 15.1 nM.

As for `CC1(C)CC(NC(=O)O[C@@H]2CN3CCC2CC3)c2ccc(-c3cccc(OC(F)(F)F)c3)cc21` (stereo partly drawn) [Example 402, (S)-quinuclidin-3-yl (3,3-dimethyl-5-(3-(trifluoromethoxy)phenyl)-2,3-dihydro-1H-inden-1-yl)carbamate], the IC50 amounted to 19.5 nM.

`CC1(C)CC(NC(=O)O[C@@H]2CN3CCC2CC3)c2ccc(-c3ccccc3OC(F)(F)F)cc21` (stereo partly drawn) [Example 403, (S)-quinuclidin-3-yl (3,3-dimethyl-5-(2-(trifluoromethoxy)phenyl)-2,3-dihydro-1H-inden-1-yl)carbamate] had a half-inhibitory concentration (IC50) of 85.3 nM.

With `O=C(NC1COc2cc(-c3cccc(C(F)(F)F)c3)ccc21)O[C@@H]1CN2CCC1CC2` (stereo partly drawn) [Example 404, (S)-quinuclidin-3-yl (6-(3-(trifluoromethyl)phenyl)-2,3-dihydrobenzofuran-3-yl)carbamate], half-maximal inhibition (IC50) required 25.9 nM.

`O=C(NC1COc2cc(-c3cccc(OC(F)(F)F)c3)ccc21)O[C@@H]1CN2CCC1CC2` (stereo partly drawn) [Example 405, (S)-quinuclidin-3-yl (6-(3-(trifluoromethoxy)phenyl)-2,3-dihydrobenzofuran-3-yl)carbamate]: the IC50 came to 44.7 nM.

The molecule `CC1(C)Oc2ccc(-c3cccc(F)c3)cc2C1NC(=O)O[C@@H]1CN2CCC1CC2` (stereo partly drawn) [Example 406, (S)-quinuclidin-3-yl (5-(3-fluorophenyl)-2,2-dimethyl-2,3-dihydrobenzofuran-3-yl)carbamate] displayed an IC50 of 120 nM.

Molecule `CC1(C)Oc2cc(-c3cccc(F)c3)ccc2C1NC(=O)O[C@@H]1CN2CCC1CC2` (stereo partly drawn) [Example 407, (S)-quinuclidin-3-yl (6-(3-fluorophenyl)-2,2-dimethyl-2,3-dihydrobenzofuran-3-yl)carbamate] yielded an IC50 of 44.4 nM.

In turn, `CC1(C)Oc2cc(-c3cccc(Cl)c3)ccc2C1NC(=O)O[C@@H]1CN2CCC1CC2` (stereo partly drawn) [Example 408, (S)-quinuclidin-3-yl (6-(3-chlorophenyl)-2,2-dimethyl-2,3-dihydrobenzofuran-3-yl)carbamate] returned an IC50 of 15.8 nM.

With `CC1(C)Oc2cc(-c3cccc(C(F)(F)F)c3)ccc2C1NC(=O)O[C@@H]1CN2CCC1CC2` (stereo partly drawn) [Example 409, (S)-quinuclidin-3-yl (2,2-dimethyl-6-(3-(trifluoromethyl)phenyl)-2,3-dihydrobenzofuran-3-yl)carbamate], the IC50 amounted to 14.9 nM. The IC50 values of the last two molecules are within 1.5-fold of each other.
